According to PubChem BioAssay AID1996:
≈ marks a conversion by molar mass, not a printed value.

settings: buffer; pH 7.4; 200.0 µM

SMILES	solubility kinetic
O=C(c1ccc(Cn2cc([N+](=O)[O-])cn2)o1)N1CCCCCC1	> 47.7 µg/mL
COc1ccc(C(=O)N/N=C\c2ccoc2)cc1	> 36.6 µg/mL
COc1ccc(/C=C/C(=O)O)cc1S(=O)(=O)N1CCC(Cc2ccccc2)CC1	61.6 µg/mL (≈ 148 µM)
O=C(COc1ccccc1Cl)NCCNC(=O)c1ccco1	47.3 µg/mL (≈ 147 µM)
COC(=O)c1ccc2nc(-c3cccc(N)c3)cn2c1	33.5 µg/mL (≈ 125 µM)
O=C(Cc1ccsc1)NCC(=O)Nc1ccccc1Br	> 53 µg/mL
COc1ccc(NC(=O)CCS(=O)(=O)c2ccc(Cl)cc2)cc1	18.4 µg/mL (≈ 52 µM)
Cc1cccc(-c2noc(CCC(=O)NC3CCCCC3)n2)c1	3.4 µg/mL (≈ 10.8 µM)
CCc1ccc(OC(=O)CN2C(=O)c3ccccc3C2=O)cc1	39.3 µg/mL (≈ 127 µM)
COc1ccc(C=O)cc1Cn1ccnc1.Cl	> 37.9 µg/mL
CSc1nc(-c2ccccc2)nc(NC(C)=O)c1C(C)=O	3.9 µg/mL (≈ 12.9 µM)
CCCCOc1ccc(C(=O)NNC(=O)c2cnccn2)cc1OC	> 51.7 µg/mL
O=C(NC(=S)NCc1ccc(Cl)cc1)c1ccco1	10.6 µg/mL (≈ 36 µM)
O=C(NCc1ccccc1Cl)c1ccc(Br)o1	41.9 µg/mL (≈ 133 µM)
Cc1ccc(C23CC4CC(CC(C(=O)NC(C(=O)O)C(C)C)(C4)C2)C3)cc1 (stereo not given)	48.1 µg/mL (≈ 130 µM)
Nc1nonc1C(=O)NCCNc1ncccc1[N+](=O)[O-]	30.2 µg/mL (≈ 103 µM)
CC(=O)NC(c1ccc(C(C)C)cc1)c1c(O)ccc2ccccc12 (stereo not given)	< 0.7 µg/mL
Cc1cccc(-c2noc(CNC(=O)c3ccc4c(c3)OCO4)n2)c1	2.3 µg/mL (≈ 6.82 µM)
CCCCSc1nc(O)cc(=O)n1CC	33.4 µg/mL (≈ 146 µM)
CN1CC(=O)N/C1=N\C(=O)Nc1ccc(O)cc1	> 37.2 µg/mL

SMILES	solubility kinetic
COC(=O)c1ccc(CSc2nc(C(F)F)cc(C)c2C#N)o1	8.3 µg/mL (≈ 24.5 µM)
CC1=C(C(=O)NC(C)c2ccccc2)C2(CCC(C)CC2)OC1=O (stereo not given)	8.4 µg/mL (≈ 25.7 µM)
O=[N+]([O-])c1ccc(CN2CCN(c3ncccn3)CC2)cc1	10.1 µg/mL (≈ 33.7 µM)
CC(=NCCCO)c1c(O)[nH]c(=O)[nH]c1=O	> 34.1 µg/mL
O=C(O)c1nc(NCc2ccccc2)ncc1Cl	> 39.6 µg/mL
O=C(CN1C(=O)C2C3CCC(C3)C2C1=O)OCC(=O)c1ccccc1 (stereo not given)	48.1 µg/mL (≈ 141 µM)
Cc1cc(C)c(S(=O)(=O)c2ccccc2C(C)C)c(=O)[nH]1	7.2 µg/mL (≈ 23.6 µM)
N#Cc1nc(-c2ccc(F)cc2)oc1NCc1ccco1	1.1 µg/mL (≈ 3.88 µM)
O=C(O)c1ccccc1-c1ccccc1C(=O)NCCc1ccccc1	50.4 µg/mL (≈ 146 µM)
COc1ccc(CCNC(=O)C(=O)NCc2cccs2)cc1OC	21.4 µg/mL (≈ 61.4 µM)
CN1CCN(c2ccc(CNC(=O)c3cc4ccccc4o3)cc2)CC1	49.5 µg/mL (≈ 142 µM)
O=C(COC(=O)c1cccc(F)c1)Nc1ccc(Cl)cn1	6.2 µg/mL (≈ 20.1 µM)
CC1Cc2ccccc2N1Cc1cccc([N+](=O)[O-])c1 (stereo not given)	3.6 µg/mL (≈ 13.4 µM)
CCC(=O)Nc1ccc2c(c1)nc1n2CCN(C2CCCCC2)C1	> 49 µg/mL
CC1(C)N2CC3([N+](=O)[O-])CN1CC([N+](=O)[O-])(C2)C3	34.5 µg/mL (≈ 135 µM)
COc1ccc(Cl)cc1NC(=O)C1CCN(S(C)(=O)=O)CC1	> 52 µg/mL
Cc1cc(Nc2ccc(N(C)C)cc2)n2ncnc2n1	> 40.2 µg/mL
Cc1ccc(NC(=O)Nc2ccc(Cl)c(Cl)c2)nc1	< 0.2 µg/mL
CCN(CC)C(=N)/C(C#N)=N/Nc1ccccc1	> 36.5 µg/mL
CCN(CC)CCNC(=O)Cn1ncc2ccccc2c1=O	> 45.4 µg/mL

SMILES	solubility kinetic
COc1ccccc1NS(=O)(=O)c1ccc2[nH]c(=O)[nH]c2c1	> 47.9 µg/mL
CC1CCC2(CC1)NC(=O)N(CC(=O)NC1CCCCC1C)C2=O (stereo not given)	> 50.3 µg/mL
Cc1cccc(NC(=O)C2CCCN2C(=O)NC2CCCCC2)c1 (stereo not given)	3.1 µg/mL (≈ 9.41 µM)
O=C(Nc1cccc(O)c1)c1cccc(NC(=O)c2cccs2)c1	> 50.8 µg/mL
Cn1c(-c2nonc2N)nc2ccccc21	4.3 µg/mL (≈ 20 µM)
CC(=O)NC1(c2ccccc2)CCN(CC(=O)N2CCC(C)CC2)CC1	> 53.6 µg/mL
COc1ccc(C(=O)NCC(C)NC(=O)c2ccc(OC)c(OC)c2)cc1OC (stereo not given)	8.9 µg/mL (≈ 22.1 µM)
O=C(c1ccc([N+](=O)[O-])s1)N1CCc2ccccc2C1	2.8 µg/mL (≈ 9.71 µM)
CCOC(=O)C1=C(C)N(CC(C)C)C(=O)C1	> 33.8 µg/mL
N#C/C=C(/c1ccc(F)cc1)N1CCOCC1	> 34.8 µg/mL
CC(C)NC(=O)CN1CCN(C(=O)CCl)CC1.Cl	> 44.7 µg/mL
O=C(COC(=O)c1cnccn1)Nc1ncc(C(F)(F)F)cc1Cl	53.4 µg/mL (≈ 148 µM)
COc1ccccc1CNC(=O)N1CCN(c2ccccc2)CC1	> 48.8 µg/mL
CC1CCCCC1NC(=O)c1cc(S(=O)(=O)N2CCOCC2)ccc1Cl (stereo not given)	16.7 µg/mL (≈ 41.7 µM)
CSc1ncccc1C(=O)OCC(=O)N1CCN(C(=O)c2ccco2)CC1	> 58.4 µg/mL
CC1CC2(CCCC2)Nc2ccc(F)cc21.Cl (stereo not given)	0.7 µg/mL
CCOC(=O)c1ccc2[nH]c3c(c2c1)CCCC3	5.5 µg/mL (≈ 22.6 µM)
Brc1cccc(CN2CCCCCC2)c1	15.2 µg/mL (≈ 56.7 µM)
Cc1ccc(C(=O)Nc2ccccc2)cc1S(=O)(=O)N1CCN(C)CC1	31.8 µg/mL (≈ 85.1 µM)
COc1ccccc1Cc1nc(-c2cccnc2)no1	31.9 µg/mL (≈ 119 µM)
